Assay results published in BigSolDB 2.1.

O=C(NC[C@H]1CN(c2ccc(N3CCOCC3=O)cc2)C(=O)O1)c1ccc(Cl)s1
solubility (mole fraction)
Conditions | 278.15 K | 283.15 K | 288.15 K | 293.15 K | 298.15 K | 303.15 K | 308.15 K | 313.15 K | 318.15 K
in DMAc | 0.00978 | 0.0108 | 0.0119 | 0.0131 | 0.0144 | 0.0158 | 0.0173 | 0.0189 | 0.0206
in DMF | 0.00586 | 0.00662 | 0.00747 | 0.0084 | 0.00943 | 0.0106 | 0.0118 | 0.0132 | 0.0147
in THF | 0.000205 | 0.00023 | 0.000263 | 0.00029 | 0.000328 | 0.000359 | 0.000401 | 0.00045 | 0.000511
in ethyl acetate | 5.17e-05 | 5.93e-05 | 6.79e-05 | 7.74e-05 | 8.81e-05 | 0.0001 | 0.000113 | 0.000128 | 0.000144
